Data from US6586633B1, “Amine derivatives” (Pola Chemical Industries, Inc., priority 2001, dated 2003).

Tests used:
Assay in all cases: Measurement of antifungal activity (minimum inhibitory concentration), agar dilution
Format in all cases: cell-based
M. canis TIMM0760 = conditions: Sabouraud's agar, one week at 27° C.; for MIC: Microsporum canis, 168 h, read-out: MIC value (minimum compound concentration that definitely inhibited any visible growth)
Protocol: (§1) Measurement of Antifungal Activity (Measurement of Minimum Inhibitory Concentration)
(§2) Antifungal activity of representative compounds of the present invention against dermatophytes was investigated.
(§3) Briefly, strains of dermatophytes to be tested were grown on slant media prepared with Sabouraud's agar (product of Nissuiseiyaku; pepton 1.0%, glucose 4.0%, agar 1.5%, pH 5.9) at 27° C. for two weeks, so as to allow sufficient production of conidiospores. Subsequently, sterilized saline solution containing 0.05% (wt/vol) TWEEN 80 was added thereto, and while the surface of the each medium was scraped with a platinum loop, the conidiospores were deaggregated and suspended in the saline solution. The suspension was filtered through a double face sterilized gauze sheet so as to remove agar and hypha pellets. The filtrate was diluted with a saline solution so as to make the concentration of the conidiospores decrease to 10^6/ml by use of a cytometer, and the resultant dilute filtrate served as a test dermatophytes solution. Meanwhile, a stock solution was prepared by adding 1 ml of dimethylsulfoxide to 10 mg of a compound to be tested. An aliquot (500 μl) of the stock solution was combined with dimethylsulfoxide (500 μl), to thereby prepare a 2-fold dilute solution. Dilution was similarly repeated until 13 different dilute solutions ranging from 10 to 0.0025 mg/ml (concentrations of the ultimate test system: 100-0.025 μg/ml) were obtained. 100 μl each of the diluted solutions of the test compound was dispensed into the sterilized petri dish. A Sabouraud's agar (pepton 1.0%, glucose 4.0%, agar 1.5%, pH 5.9; 10 ml), which had been sterilized and dissolved, was added thereto, and the mixture was thoroughly mixed and solidified. Next, the above-prepared test dermatophytes solution was planted in amounts of 5 μl by use of a microplanter.

M. gypseum IF08231 = M. gypseum IF08231 (Table 2), Sabouraud's agar, one week at 27° C.; for MIC: Nannizzia gypsea, 168 h, read-out: MIC value (minimum compound concentration that definitely inhibited any visible growth)
Protocol: as §1, §2, §3

T. rubrum IF09185 = conditions: Sabouraud's agar, one week at 27° C.; for MIC: Trichophyton rubrum, 168 h, read-out: MIC value (minimum compound concentration that definitely inhibited any visible growth)
Protocol: as §1, §2, §3

[1] = system: T. mentagrophytes IF05811; conditions: Sabouraud's agar, one week at 27° C.; for MIC: Trichophyton mentagrophytes, 168 h, read-out: MIC value (minimum compound concentration that definitely inhibited any visible growth)
Protocol: as §1, §2, §3

[2] = system: T. mentagrophytes IF07552; conditions: Sabouraud's agar, one week at 27° C.; for MIC: Trichophyton mentagrophytes, 168 h, read-out: MIC value (minimum compound concentration that definitely inhibited any visible growth)
Protocol: as §1, §2, §3

[3] = system: T. mentagrophytes TIMM1177; conditions: Sabouraud's agar, one week at 27° C.; for MIC: Trichophyton mentagrophytes, 168 h, read-out: MIC value (minimum compound concentration that definitely inhibited any visible growth)
Protocol: as §1, §2, §3

T. rubrum IF05808 = conditions: Sabouraud's agar, one week at 27° C.; for MIC: Trichophyton rubrum, 168 h, read-out: MIC value (minimum compound concentration that definitely inhibited any visible growth)
Protocol: as §1, §2, §3

[4] = system: T. mentagrophytes TIMM1189; conditions: Sabouraud's agar, one week at 27° C.; for MIC: Trichophyton mentagrophytes, 168 h, read-out: MIC value (minimum compound concentration that definitely inhibited any visible growth)
Protocol: as §1, §2, §3

T. violaceum TIMM1264 = conditions: Sabouraud's agar, one week at 27° C.; for MIC: Trichophyton violaceum, 168 h, read-out: MIC value (minimum compound concentration that definitely inhibited any visible growth)
Protocol: as §1, §2, §3

For `C/C=C(/C)c1cccc(CN(C)Cc2ccc(C(C)(C)C)cc2)c1.Cl` [Compound 97, cis-N-(4-tert-Butylbenzyl)-N-methyl-[3-(1-methyl-1-propenyl)benzyl]amine Hydrochloride], the “MIC value (minimum compound concentration that definitely inhibited any visible growth)” value (M. canis TIMM0760) was 0.39 µg/mL, the “MIC value (minimum compound concentration that definitely inhibited any visible growth)” value (M. gypseum IF08231) was 3.12 µg/mL and the “MIC value (minimum compound concentration that definitely inhibited any visible growth)” value (T. rubrum IF09185) was 0.78 µg/mL. For the same molecule, the “MIC value (minimum compound concentration that definitely inhibited any visible growth)” value [1] was 1.56 µg/mL, the “MIC value (minimum compound concentration that definitely inhibited any visible growth)” value [2] was 3.12 µg/mL and the “MIC value (minimum compound concentration that definitely inhibited any visible growth)” value [3] was 1.56 µg/mL. For the same molecule, the “MIC value (minimum compound concentration that definitely inhibited any visible growth)” value (T. rubrum IF05808) was 1.56 µg/mL, the “MIC value (minimum compound concentration that definitely inhibited any visible growth)” value [4] was 0.78 µg/mL and the “MIC value (minimum compound concentration that definitely inhibited any visible growth)” value (T. violaceum TIMM1264) was 1.56 µg/mL.

`C=C(C)c1cc(F)cc(CN(C)Cc2ccc(C(C)(C)C)cc2)c1.Cl` [Compound 101, N-(4-tert-Butylbenzyl)-N-methyl-(3-fluoro-5-isopropenylbenzyl)amine Hydrochloride] was tested, and the MIC (M. canis TIMM0760) was 0.1 µg/mL, the MIC (M. gypseum IF08231) was 0.2 µg/mL and the MIC (T. rubrum IF09185) was 0.1 µg/mL. For the same molecule, the MIC [1] was 0.1 µg/mL, the MIC [2] was 0.1 µg/mL and the MIC [3] was 0.2 µg/mL. For the same molecule, the MIC (T. rubrum IF05808) was 0.05 µg/mL, the MIC [4] was 0.1 µg/mL and the MIC (T. violaceum TIMM1264) was 0.1 µg/mL.

`C=C(C)c1ccccc1CN(C)Cc1ccc(C(C)(C)C)cc1.Cl` [Compound 108, N-(4-tert-Butylbenzyl)-N-methyl-(2-isopropenylbenzyl)amine Hydrochloride] gave an MIC (M. canis TIMM0760) of 1.56 µg/mL, an MIC (M. gypseum IF08231) of 1.56 µg/mL and an MIC (T. rubrum IF09185) of 0.78 µg/mL. It also gave an MIC [1] of 1.56 µg/mL, an MIC [2] of 1.56 µg/mL and an MIC [3] of 3.12 µg/mL. The MIC (T. rubrum IF05808) was 0.78 µg/mL, the MIC [4] was 1.56 µg/mL and the MIC (T. violaceum TIMM1264) was 3.12 µg/mL.

With `C=C(C)c1cccc(CN(CC)Cc2ccc(C(C)(C)C)cc2)c1.Cl` [Compound 114, N-(4-tert-Butylbenzyl)-N-ethyl-(3-isopropenylbenzyl)amine Hydrochloride] the MIC (M. canis TIMM0760) was 0.2 µg/mL, the MIC (M. gypseum IF08231) was 0.2 µg/mL and the MIC (T. rubrum IF09185) was 0.2 µg/mL. For the same molecule, the MIC [1] was 0.78 µg/mL, the MIC [2] was 0.39 µg/mL and the MIC [3] was 0.39 µg/mL. It also gave an MIC (T. rubrum IF05808) of 0.2 µg/mL, an MIC [4] of 0.39 µg/mL and an MIC (T. violaceum TIMM1264) of 0.39 µg/mL.

In the case of `C=C(C)c1cc(CN(C)Cc2ccc(C(C)(C)C)cc2)ccc1C.Cl` [Compound 126, N-(4-tert-Butylbenzyl)-N-methyl-(3-isopropenyl-4-methylbenzyl)amine Hydrochloride], the MIC (M. canis TIMM0760) is reported as 1.56 µg/mL, the MIC (M. gypseum IF08231) is reported as 6.25 µg/mL and the MIC (T. rubrum IF09185) is reported as 3.12 µg/mL. It also gave an MIC [1] of 12.5 µg/mL, an MIC [2] of 3.12 µg/mL and an MIC [3] of 12.5 µg/mL. For the same molecule, the MIC (T. rubrum IF05808) was 3.12 µg/mL, the MIC [4] was 3.12 µg/mL and the MIC (T. violaceum TIMM1264) was 3.12 µg/mL.
